Results reported in patent US10030020B2, “Spirocycle compounds and methods of making and using same” (Abide Therapeutics, Inc., priority 2016, dated 2018).
pIC50: −log10 of the molar value. Where two headings read alike, the source gives them in different places.

Columns and labels:
Format in all cases: biochemical
ABHD6 = ABHD6 (Mus musculus (Mouse), UniProt Q8R2Y0); test: In vitro competitive activity-based protein profiling (mouse brain membrane fraction or cell lysates), ABHD6 band; conditions: for inhibition at 1 µM: read-out: ABHD6 % Inh 1 μM (mouse); for pIC50: competitive ABPP
Protocol: (§1) In Vitro Competitive Activity-Based Protein Profiling.
(§2) Proteomes (mouse brain membrane fraction or cell lysates) (50 μL, 1.0 mg/mL total protein concentration) were preincubated with varying concentrations of inhibitors at 37° C. After 30 min, FP—Rh (1.0 μL, 50 μM in DMSO) was added and the mixture was incubated for another 30 min at 37° C. Reactions were quenched with SDS loading buffer (50 μL-4×) and run on SDS-PAGE. Following gel imaging, serine hydrolase activity was determined by measuring fluorescent intensity of gel bands corresponding to MAGL, ABHD6 and FAAH using ImageJ 1.43u software.

FAAH = FAAH (Mus musculus (Mouse), UniProt O08914); test: In vitro competitive activity-based protein profiling (mouse brain membrane fraction or cell lysates), FAAH band; conditions: for inhibition at 1 µM: read-out: FAAH % Inh 1 μM (mouse); for pIC50: competitive ABPP
Protocol: as §1, §2

MAGL = MAGL (Mus musculus (Mouse), UniProt O35678); test: In vitro competitive activity-based protein profiling (mouse brain membrane fraction or cell lysates), MAGL band; conditions: mouse proteome; for inhibition at 1 µM: read-out: MAGL % Inh 1 μM (mouse); for pIC50: competitive ABPP
Protocol: as §1
Proteomes (mouse brain membrane fraction or cell lysates) (50 μL, 1.0 mg/mL total protein concentration) were preincubated with varying concentrations of inhibitors at 37° C. After 30 min, FP—Rh (1.0 μL, 50 μM in DMSO) was added and the mixture was incubated for another 30 min at 37° C. Reactions were quenched with SDS loading buffer (50 μL-4×) and run on SDS-PAGE.

Sequence of FAAH (O08914 whole entry): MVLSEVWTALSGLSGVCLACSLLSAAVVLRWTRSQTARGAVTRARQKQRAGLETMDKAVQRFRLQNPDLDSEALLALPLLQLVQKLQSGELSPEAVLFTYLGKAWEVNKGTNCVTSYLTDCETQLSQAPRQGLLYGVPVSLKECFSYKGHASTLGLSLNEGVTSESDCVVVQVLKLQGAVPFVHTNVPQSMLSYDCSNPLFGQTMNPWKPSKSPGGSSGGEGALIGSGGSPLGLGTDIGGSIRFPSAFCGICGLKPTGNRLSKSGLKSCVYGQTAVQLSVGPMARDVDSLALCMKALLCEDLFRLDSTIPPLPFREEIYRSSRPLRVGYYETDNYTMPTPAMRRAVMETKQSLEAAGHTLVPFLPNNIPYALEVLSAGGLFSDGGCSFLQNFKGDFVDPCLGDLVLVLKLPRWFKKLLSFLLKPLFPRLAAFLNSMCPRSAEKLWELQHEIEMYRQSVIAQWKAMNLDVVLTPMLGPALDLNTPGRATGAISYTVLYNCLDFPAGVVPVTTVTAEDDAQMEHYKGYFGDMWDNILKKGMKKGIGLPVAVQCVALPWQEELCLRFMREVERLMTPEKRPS
Sequence of MAGL (O35678 whole entry): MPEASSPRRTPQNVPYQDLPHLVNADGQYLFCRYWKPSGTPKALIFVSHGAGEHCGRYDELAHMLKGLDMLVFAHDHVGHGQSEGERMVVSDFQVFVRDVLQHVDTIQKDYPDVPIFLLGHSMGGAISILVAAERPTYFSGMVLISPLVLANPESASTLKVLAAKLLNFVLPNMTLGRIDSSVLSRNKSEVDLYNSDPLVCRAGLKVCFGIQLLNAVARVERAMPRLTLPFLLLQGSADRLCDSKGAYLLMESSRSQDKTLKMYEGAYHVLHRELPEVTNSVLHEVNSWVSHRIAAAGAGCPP
Sequence of ABHD6 (Q8R2Y0 whole entry): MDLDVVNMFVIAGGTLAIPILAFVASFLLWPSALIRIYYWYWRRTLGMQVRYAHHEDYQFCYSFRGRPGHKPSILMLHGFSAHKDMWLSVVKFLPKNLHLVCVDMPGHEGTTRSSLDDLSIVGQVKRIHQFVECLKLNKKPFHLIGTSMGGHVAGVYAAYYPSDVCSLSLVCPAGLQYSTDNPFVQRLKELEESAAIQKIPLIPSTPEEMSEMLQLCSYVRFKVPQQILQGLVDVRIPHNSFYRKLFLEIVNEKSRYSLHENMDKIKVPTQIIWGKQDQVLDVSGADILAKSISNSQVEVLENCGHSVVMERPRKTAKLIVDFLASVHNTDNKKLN

inhibition at 1 µM (ABHD6; mouse proteome) [%] | pIC50 (ABHD6; mouse proteome) | inhibition at 1 µM (FAAH; mouse proteome) [%] | pIC50 (FAAH; mouse proteome) | inhibition at 1 µM (MAGL) [%] | pIC50 (MAGL) | inhibition at 1 µM (ABHD6; mouse) [%] | inhibition at 1 µM (FAAH; mouse) [%] | Structure (SMILES)
< 25 | < 6.00 | < 25 | < 6.00 | > 75 |  |  |  | COc1ccc(CN2CCCC23CCN(C(=O)OC(C(F)(F)F)C(F)(F)F)CC3)cc1 [Example 1, 1,1,1,3,3,3-Hexafluoropropan-2-yl 1-(4-methoxybenzyl)-1,8-diazaspiro[4.5]decane-8-carboxylate]
< 25 | < 6.00 | < 25 | < 6.00 | > 75 | 6.00 to 7.00 |  |  | COc1cccc(CN2CCCC23CCN(C(=O)OC(C(F)(F)F)C(F)(F)F)CC3)c1 [Example 2, 1,1,1,3,3,3-Hexafluoropropan-2-yl 1-(3-methoxybenzyl)-1,8-diazaspiro[4.5]decane-8-carboxylate]
< 25 | < 6.00 | < 25 | < 6.00 | > 75 | 6.00 to 7.00 |  |  | COc1ccccc1CN1CCCC12CCN(C(=O)OC(C(F)(F)F)C(F)(F)F)CC2 [Example 3, 1,1,1,3,3,3-Hexafluoropropan-2-yl 1-(2-methoxybenzyl)-1,8-diazaspiro[4.5]decane-8-carboxylate]
 | < 6.00 |  | < 6.00 |  | 6.00 to 7.00 |  |  | CCOc1ccccc1CN1CCCC12CCN(C(=O)OC(C(F)(F)F)C(F)(F)F)CC2 [Example 6, 1,1,1,3,3,3-Hexafluoropropan-2-yl 1-(2-ethoxybenzyl)-1,8-diazaspiro[4.5]decane-8-carboxylate]
< 25 | < 6.00 | < 25 | < 6.00 | > 75 | 6.00 to 7.00 |  |  | O=C(OC(C(F)(F)F)C(F)(F)F)N1CCC2(CCCN2Cc2cccc(OCCN3CCCCC3)c2)CC1 [Example 11, 1,1,1,3,3,3-Hexafluoropropan-2-yl 1-(3-(2-(piperidin-1-yl)ethoxy)benzyl)-1,8-diazaspiro[4.5]decane-8-carboxylate]
< 25 | < 6.00 | < 25 | < 6.00 | > 75 | 6.00 to 7.00 |  |  | O=C(OC(C(F)(F)F)C(F)(F)F)N1CCC2(CCCN2Cc2cccc(OCCN3CCCC3)c2)CC1 [Example 12, 1,1,1,3,3,3-Hexafluoropropan-2-yl 1-(3-(2-(pyrrolidin-1-yl)ethoxy)benzyl)-1,8-diazaspiro[4.5]decane-8-carboxylate]
< 25 | < 6.00 | < 25 | < 6.00 | > 75 | 6.00 to 7.00 |  |  | O=C(OC(C(F)(F)F)C(F)(F)F)N1CCC2(CCCN2Cc2cccc(OCCN3CCOCC3)c2)CC1 [Example 13, 1,1,1,3,3,3-Hexafluoropropan-2-yl 1-(3-(2-morpholinoethoxy)benzyl)-1,8-diazaspiro[4.5]decane-8-carboxylate]
< 25 |  | < 25 |  | > 75 |  |  |  | O=C(OC(C(F)(F)F)C(F)(F)F)N1CCC2(CCCN2Cc2ccc(OCCN3CCOCC3)cc2)CC1 [Example 14, 1,1,1,3,3,3-Hexafluoropropan-2-yl 1-(4-(2-morpholinoethoxy)benzyl)-1,8-diazaspiro[4.5]decane-8-carboxylate]
< 25 | < 6.00 | < 25 | < 6.00 | > 75 | 6.00 to 7.00 |  |  | O=C(OC(C(F)(F)F)C(F)(F)F)N1CCC2(CCCN2Cc2ccc(OCCN3CCCCC3)c(Cl)c2)CC1 [Example 15, 1,1,1,3,3,3-Hexafluoropropan-2-yl 1-(3-chloro-4-(2-(piperidin-1-yl)ethoxy)benzyl)-1,8-diazaspiro[4.5]decane-8-carboxylate]
< 25 | < 6.00 | 25 to 75 | < 6.00 | > 75 | > 7.00 |  |  | O=C(OC(C(F)(F)F)C(F)(F)F)N1CCC2(CCCN2Cc2cc(Cl)cc(N3CC4COCC4C3)c2)CC1 (centres unmarked) [Example 38, 1,1,1,3,3,3-Hexafluoropropan-2-yl 1-(3-chloro-5-(tetrahydro-1H-furo[3,4-c]pyrrol-5(3H)-yl)benzyl)-1,8-diazaspiro[4.5]decane-8-carboxylate]
< 25 | < 6.00 | < 25 | < 6.00 | > 75 | > 7.00 |  |  | O=C(OC(C(F)(F)F)C(F)(F)F)N1CCC2(CCCN2Cc2cc(Cl)cc(N3CCC(F)CC3)c2)CC1 [Example 39, 1,1,1,3,3,3-Hexafluoropropan-2-yl 1-(3-chloro-5-(4-fluoropiperidin-1-yl)benzyl)-1,8-diazaspiro[4.5]decane-8-carboxylate]
< 25 | < 6.00 | < 25 | < 6.00 | > 75 | > 7.00 |  |  | CS(=O)(=O)N1CCN(c2cc(Cl)cc(CN3CCCC34CCN(C(=O)OC(C(F)(F)F)C(F)(F)F)CC4)c2)CC1 [Example 40, 1,1,1,3,3,3-Hexafluoropropan-2-yl 1-(3-chloro-5-(4-(methylsulfonyl)piperazin-1-yl)benzyl)-1,8-diazaspiro[4.5]decane-8-carboxylate]
< 25 | < 6.00 | < 25 | < 6.00 | > 75 | > 7.00 |  |  | O=C(OC(C(F)(F)F)C(F)(F)F)N1CCC2(CCCN2Cc2cc(N3CCN(C4CC4)CC3)cc(C(F)(F)F)c2)CC1 [Example 41, 1,1,1,3,3,3-Hexafluoropropan-2-yl 1-(3-(4-cyclopropylpiperazin-1-yl)-5-(trifluoromethyl)benzyl)-1,8-diazaspiro[4.5]decane-8-carboxylate]
 | < 6.00 |  | < 6.00 |  |  |  |  | O=C(OC(C(F)(F)F)C(F)(F)F)N1CCC2(CCCN2Cc2cc(N3CCC(C(F)(F)F)CC3)cc(C(F)(F)F)c2)CC1 [Example 44, 1,1,1,3,3,3-Hexafluoropropan-2-yl 1-(3-(trifluoromethyl)-5-(4-(trifluoromethyl)piperidin-1-yl)benzyl)-1,8-diazaspiro[4.5]decane-8-carboxylate]
< 25 | < 6.00 | < 25 | < 6.00 | > 75 |  |  |  | COc1cc(Cl)ccc1CN1CC2(CCN(C(=O)OC(C(F)(F)F)C(F)(F)F)CC2)CC1(C)C [Example 49, 1,1,1,3,3,3-Hexafluoropropan-2-yl 2-(4-chloro-2-methoxybenzyl)-3,3-dimethyl-2,8-diazaspiro[4.5]decane-8-carboxylate]
< 25 | < 6.00 | < 25 | < 6.00 | > 75 | > 7.00 |  |  | CC1(C)CC2(CCN(C(=O)OC(C(F)(F)F)C(F)(F)F)CC2)CN1Cc1ccc(C(F)(F)F)cc1N1CC2COCC2C1 (centres unmarked) [Example 55, 1,1,1,3,3,3-Hexafluoropropan-2-yl 3,3-dimethyl-2-(2-(tetrahydro-1H-furo[3,4-c]pyrrol-5(3H)-yl)-4-(trifluoromethyl)benzyl)-2,8-diazaspiro[4.5]decane-8-carboxylate]
< 25 | < 6.00 | < 25 | < 6.00 |  |  |  |  | O=C(O)C1CCN(c2cc(Cl)ccc2CN2CCC3(CCN(C(=O)OC(C(F)(F)F)C(F)(F)F)CC3)C2)CC1 [Example 118, 1-(5-chloro-2-((8-(((1,1,1,3,3,3-hexafluoropropan-2-yl)oxy)carbonyl)-2,8-diazaspiro[4.5]decan-2-yl)methyl)phenyl)piperidine-4-carboxylic acid]
< 25 | < 6.00 | < 25 | < 6.00 |  |  |  |  | O=C(O)c1ccc(CN2CCCC23CCN(C(=O)OC(C(F)(F)F)C(F)(F)F)CC3)cc1C(F)(F)F [Example 182, 4-((8-((1,1,1,3,3,3-Hexafluoropropan-2-yloxy)carbonyl)-1,8-diazaspiro[4.5]decan-1-yl)methyl)-2-(trifluoromethyl)benzoic acid]
 |  |  |  |  |  | 25 to 75 | < 25 | O=C(O)C1CCN(c2cc(F)ccc2CN2CCC3(CCN(C(=O)OC(C(F)(F)F)C(F)(F)F)CC3)C2)CC1 [Example 237]
 |  |  |  |  |  | < 25 | < 25 | Cc1cc(CN2CCCC23CCN(C(=O)OC(C(F)(F)F)C(F)(F)F)CC3)cc(C(=O)O)c1 [Example 243]
 |  |  |  |  |  | 25 to 75 | < 25 | O=C(O)C1CCN(Cc2cc(CN3CCC4(CCN(C(=O)OC(C(F)(F)F)C(F)(F)F)CC4)C3)ccc2Cl)CC1 [Example 246]
 |  |  |  |  |  | 25 to 75 | < 25 | O=C(O)c1cc(CN2CCC3(CCN(C(=O)OC(C(F)(F)F)C(F)(F)F)CC3)C2)ccc1C(F)(F)F [Example 255]
 |  |  |  |  |  | < 25 | < 25 | CC1(C(=O)O)CN(c2cc(C(F)(F)F)ccc2CN2CCCC23CCN(C(=O)OC(C(F)(F)F)C(F)(F)F)CC3)CCO1 (centres unmarked) [Example 260]
 |  |  |  |  |  | < 25 | < 25 | O=C(O)c1cc(CN2CCCC23CCN(C(=O)OC(C(F)(F)F)C(F)(F)F)CC3)ccc1Cl [Example 266]
